Measurements published in patent US20210007356A1, “IMIDE DERIVATIVE AND FUNGICIDE CONTAINING SAID DERIVATIVE AS ACTIVE INGREDIENT” (HOKKO CHEMICAL INDUSTRY CO., LTD., priority 2018, published 2021).
Where two headings read alike, the source gives them in different places.

Columns and labels:
[1] = tested on: barley powdery mildew fungus (Erysiphe graminis); assay: Test Example 2: control effect against barley powdery mildew by foliage application; type: in vivo; conditions: wettable powder diluted to 100 ppm, 10 mL per pot foliage spray on barley; inoculated day after; 7 days after inoculation
[2] = tested on: rice blast fungus (Pyricularia grisea); type: in vivo; conditions: flowable diluted to 100 ppm, 10 mL per pot foliage spray on paddy rice; inoculated day after; 7 days after inoculation
[3] = tested on: rice sheath blight fungus (Thanatephorus cucumeris); assay: Test Example 8: control effect against rice sheath blight by box treatment (granule); conditions: 5 g of granule on nursery box, paddy rice; inoculated after 3 weeks; 7 days after inoculation
[4] = tested on: rice sheath blight fungus (Thanatephorus cucumeris); assay: Test Example 6: control effect against rice sheath blight by box treatment (flowable formulation); conditions: flowable 5,000 ppm, 50 mL irrigation of nursery box, paddy rice; inoculated after 3 weeks; 7 days after inoculation
[5] = tested on: rice sheath blight fungus (Thanatephorus cucumeris); assay: Test Example 10: control effect against rice sheath blight by water surface application (flowable formulation); conditions: flowable 1,000 ppm, 1 mL dripped in paddy water, inoculated after 1 week, 7 days after inoculation
Method: Control value (%)=[1−(lesion height in sprayed plot/lesion height in unsprayed plot)]×100 (d)
By dripping treatment in paddy water, 1 mL of a diluted solution (1,000 ppm) of a flowable prepared according to Formulation Example-3 was applied to a 5-leaf-stage paddy rice (variety: Asahi) seedling (5 seedlings/stub, one stub/pot) grown in a pot ( 1/10000 are in size) filled with paddy soil (flooded) within a greenhouse. After growing for 1 week within a greenhouse, a culture of rice sheath blight fungus (Thanatephorus cucumeris) grown in advance on a rice straw medium was inoculated into the root of the formulation-treated paddy rice, and disease development was promoted in an artificial weather chamber at 26° C. (relative humidity=100%). Seven days after the inoculation, the rice sheath blight lesion height (height from the root) was examined, and the control value (%) was calculated according to formula (d). […] This test was performed with three replications, each consisting of one plot and one pot, per one formulation plot, and its average evaluation value of control effect was determined.

[6] = tested on: rice blast fungus (Pyricularia grisea); type: in vivo; conditions: flowable 5,000 ppm, 50 mL irrigation of nursery box, paddy rice; inoculated after 3 weeks; 7 days after inoculation
[7] = tested on: rice blast fungus (Pyricularia grisea); type: in vivo; conditions: 5 g of granule on nursery box, paddy rice; inoculated after 3 weeks; 7 days after inoculation
[8] = tested on: rice blast fungus (Pyricularia grisea); type: in vivo; conditions: flowable 1,000 ppm, 1 mL dripped in paddy water, inoculated after 1 week, 7 days after inoculation

SMILES | evaluation value of control effect (from control value, lesion area percentage) [1] | evaluation value of control effect (from control value, number of lesions) [2] | evaluation value of control effect (from control value, lesion height) [3] | evaluation value of control effect (from control value, lesion height) [4] | evaluation value of control effect (from control value, lesion height) [5] | evaluation value of control effect (from control value, number of lesions) [6] | evaluation value of control effect (from control value, number of lesions) [7] | evaluation value of control effect (from control value, number of lesions) [8]
Cc1nn(C)c(F)c1C(=O)N(C(=O)c1snc(Cl)c1Cl)c1ccccc1C(C)CC(C)C (stereo not shown) [1-131, 3,4-Dichloro-N-{2-(1,3-dimethylbutyl)phenyl}-N-(5-fluoro-1,3-dimethylpyrazole-4-carbonyl)isothiazole-5-carboxamide] | 4 | 4 | 5 | 5 | 5 |  |  | 
Cc1nn(C)c(F)c1C(=O)N(C(=O)c1scnc1C(F)(F)F)c1ccccc1C(C)CC(C)C (stereo not shown) [1-336] | 4 | 4 |  |  |  |  |  | 
Cc1nn(C)c(F)c1C(=O)N(C(=O)c1scnc1C(F)F)c1ccccc1C(C)CC(C)C (stereo not shown) [1-346] | 4 | 4 |  |  |  | 5 | 5 | 5
Cc1nnsc1C(=O)N(C(=O)c1cn(C)nc1C(F)F)c1ccccc1-c1cc(F)c(F)c(F)c1 [1-368] | 4 | 4 | 5 | 5 | 5 |  |  | 
Cn1cc(C(=O)N(C(=O)c2scnc2C(F)(F)F)c2ccccc2-c2cc(F)c(F)c(F)c2)c(C(F)F)n1 [1-371] |  | 4 |  |  |  |  |  | 
Cc1nn(C)c(C)c1C(=O)N(C(=O)c1snc(Cl)c1Cl)c1ccccc1C(C)CC(C)C (stereo not shown) [1-377] | 4 | 4 |  |  |  | 5 | 5 | 5
Cc1nn(C)c(Cl)c1C(=O)N(C(=O)c1snc(Cl)c1Cl)c1ccccc1C(C)CC(C)C (stereo not shown) [1-378] |  | 4 |  |  |  | 5 | 5 | 5
CC(C)CC(C)c1ccccc1N(C(=O)c1snc(Cl)c1Cl)C(=O)c1c(C(F)F)nn(C)c1Cl (stereo not shown) [1-379] | 4 | 4 |  |  |  | 5 | 5 | 5
Cc1nnsc1C(=O)N(C(=O)c1cn(C)nc1C(F)(F)F)c1ccsc1C(C)CC(C)C (stereo not shown) [5-19] | 5 | 4 |  |  |  | 5 | 5 | 5
Cc1nc(C(F)F)c(C(=O)N(C(=O)c2c(C(F)F)nn(C)c2Cl)c2ccccc2C(C)CC(C)C)s1 (stereo not shown) [7-272] | 4 | 4 |  |  |  |  |  | 
Cc1nc(C(F)(F)F)c(C(=O)N(C(=O)c2snc(Cl)c2Cl)c2c(Br)cc(OC(F)(F)F)cc2Br)s1 [7-279] | 4 | 4 | 5 | 5 | 5 |  |  | 
Cc1nc(C(F)(F)F)c(C(=O)N(C(=O)c2sc(C)nc2C(F)(F)F)c2c(Br)cc(OC(F)(F)F)cc2Br)s1 [7-286] | 4 | 4 | 5 | 5 | 5 |  |  | 
CC(C)CC(C)c1ccccc1N(C(=O)c1cc(Cl)c(Cl)s1)C(=O)c1cccnc1C(F)F (stereo not shown) [13-50] | 4 | 4 |  |  |  | 5 | 5 | 5
CC(C)CC(C)c1ccccc1N(C(=O)c1cccnc1CF)C(=O)c1snc(Cl)c1Cl (stereo not shown) [13-56] | 4 | 4 |  |  |  | 5 | 5 | 5
CC(C)CC(C)c1ccccc1N(C(=O)c1cccnc1C(C)F)C(=O)c1snc(Cl)c1Cl (stereo not shown) [13-57] |  | 4 |  |  |  | 5 | 5 | 5
CC(C)CC(C)c1ccccc1N(C(=O)c1ccccc1C(F)F)C(=O)c1snc(Cl)c1Cl (stereo not shown) [19-2] | 4 | 4 |  |  |  | 5 | 5 | 5
Cc1nc(C(F)F)c(C(=O)N(C(=O)c2cn(C)nc2C(F)F)c2cccc3c2C(C)CC3(C)C)s1 (stereo not shown) [25-97] | 4 | 4 | 5 | 5 | 5 |  |  | 
Cc1nn(C)c(Cl)c1C(=O)N(C(=O)c1scnc1C(F)F)c1cccc2c1C(C)OC2(C)C (stereo not shown) [25-119] |  | 4 |  |  |  |  |  | 
Cc1nn(C)c(Cl)c1C(=O)N(C(=O)c1scnc1C(F)(F)F)c1cccc2c1C(C)OC2(C)C (stereo not shown) [25-120] |  | 4 |  |  |  |  |  | 
Cc1nc(C(F)(F)F)c(C(=O)N(C(=O)c2c(C)nn(C)c2Cl)c2cccc3c2C(C)OC3(C)C)s1 (stereo not shown) [25-122] |  | 4 |  |  |  |  |  | 
Cc1nc(C(F)F)c(C(=O)N(C(=O)c2snnc2C)c2cccc3c2C(C)CC3(C)C)s1 (stereo not shown) [26-49] | 4 | 4 |  |  |  | 5 | 5 | 5
Cc1nc(C(F)F)c(C(=O)N(C(=O)c2sc(C)nc2C(F)(F)F)c2cccc3c2C(C)CC3(C)C)s1 (stereo not shown) [26-73] | 4 | 4 | 5 | 5 | 5 |  |  | 
Cc1nc(C(F)F)c(C(=O)N(C(=O)c2scnc2C(F)(F)F)c2cccc3c2C(C)OC3(C)C)s1 (stereo not shown) [26-82] |  | 4 | 5 | 5 | 5 |  |  | 
Cc1nc(C(F)F)c(C(=O)N(C(=O)c2cc(Cl)nc(Cl)c2)c2cccc3c2C(C)CC3(C)C)s1 (stereo not shown) [26-89] | 4 | 4 | 5 | 5 | 5 |  |  | 
Cc1nnsc1C(=O)N(C(=O)c1cccnc1C(F)F)c1cccc2c1C(C)OC2(C)C (stereo not shown) [27-16] | 4 |  | 5 | 5 | 5 | 5 | 5 | 5
CC1OC(C)(C)c2cccc(N(C(=O)c3ccccc3C(F)F)C(=O)c3snc(Cl)c3Cl)c21 (stereo not shown) [28-4] |  | 4 | 5 | 5 | 5 | 5 | 5 | 5
